The values below come from patent publication US8343966B2, “Organic compounds” (Novartis AG, priority 2008, dated 2013).

pIC50: −log10 of the molar value.

The assay concerns the target T1, human ALK5 (ALK5 T204D kinase domain) (Homo sapiens, UniProt P36897, T204D).
T1 construct: The kinase domain of human ALK5 (amino acids 200-503); made in house; host or cells: insect cells (baculovirus)
T1 sequence (P36897 200-503 T204D): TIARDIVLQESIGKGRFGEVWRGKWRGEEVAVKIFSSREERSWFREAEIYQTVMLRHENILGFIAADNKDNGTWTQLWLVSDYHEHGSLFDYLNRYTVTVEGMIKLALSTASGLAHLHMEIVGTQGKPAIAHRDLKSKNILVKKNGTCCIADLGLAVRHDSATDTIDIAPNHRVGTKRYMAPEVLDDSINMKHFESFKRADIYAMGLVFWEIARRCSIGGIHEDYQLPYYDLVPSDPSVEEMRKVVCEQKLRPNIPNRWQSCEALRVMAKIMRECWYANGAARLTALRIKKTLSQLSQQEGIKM
As to the kind of experiment: ALK5 kinase assay, [33P] phosphate incorporation into casein. The note with it: casein substrate, 1 μM unlabelled ATP. The assay is classed as biochemical. Here is the method:
The kinase activity of ALK5 is assessed by measuring radiolabelled phosphate [33P] incorporation in to the generic substrate, casein. The kinase domain of human ALK5 (amino acids 200-503) is fused to an N-terminal histidine tag. The kinase activity of ALK5 is rendered constitutive via point mutation at amino acid 204 (threonine to aspartate modification, ALK5 T204D) and the kinase construct is engineered to be expressed from a baculovirus expression construct in insect cells. The purified, recombinantly-expressed histidine-tagged ALK5 T204D protein is dissolved at 5.4 mg/ml in 50 mM Tris-HCl pH 8.0, 150 mM NaCl, 5 mM DTT. ALK5 T204D is dissolved to 2.5 μg/ml in assay buffer (Assay buffer: 20 mM Tris-HCl pH 7.4, 10 mM MgCl2, 2 mM MnCl2) on the day of use.
Test compounds and reference compounds are dissolved in assay buffer without DTT containing 5% (v/v) DMSO. Stock solutions of test and reference compounds are diluted in assay buffer with DTT (1.25 mM) containing 4.5% (v/v) DMSO. 10 μl of test or reference compound are added to the appropriate wells of 96 well U-bottomed plate. Total enzyme activity is determined by measuring ALK5 T204D activity in the absence of ALK5 kinase inhibitor reference compounds. Non-specific binding (NSB) is determined by measuring the activity of ALK5 T204D in the presence of ALK5 kinase inhibitor reference compounds. 10 μl of dephosphorylated casein stock solution (dephosphorylated casein is dissolved in ddH2O at 20 mg/ml) is added per well (200 μg/well final assay concentration). 20 μl of ALK5 T204D (2.5 μg/ml solution) is added per well (50 ng/well final assay concentration). The plates are left to incubate at room temperature for 10 minutes.
10 μl of ATP mix is added to the well to initiate the reaction (0.66 nM [^33P]ATP/1 μM unlabelled ATP/well final assay concentration). The ATP mix is prepared as follows, unlabelled ATP (3 mM) is dissolved in ddH2O and pH adjusted to 7.4. The stock concentration of [^33P]ATP is 10 μCi/μl. The appropriate volume of [^33P]ATP is added to unlabelled ATP solution such that the final assay concentration per well is 0.1 μCi. Following addition of the ATP mix, the plates are incubated at room temperature for 50 minutes. The kinase reaction is terminated by the addition of 50 μL Stop Buffer (20 mM Tris-HCl pH 7.4, 10 mM EDTA).
75 μl/well from the reaction plate is transferred to a Multiscreen-IP plate (MultiScreen-IP plates are prepared by added 50 μL of 70% (v/v) ethanol per well and incubated for 5 minutes at room temperature. The ethanol is removed by aspiration via a MultiScreen HTS Vacuum Manifold unit (Millipore, Cat no: MSVMHT500). The plates are washed twice by adding 200 μl/well ddH2O). The MultiScreen-IP plate is incubated at room temperature for 30 minutes to allowing binding of casein to the plate. The MultiScreen-IP plates are washed three times by adding 200 μl/well 100 mM phosphoric acid solution and the gasket is carefully removed from the back of the MultiScreen-IP plate and the plate dried in the oven for 30 minutes. The MultiScreen-IP plate is backsealed, 50 μL of Microscint™20 is added, then the plates are topsealed and radiolabelled casein detected and quantified on a TopCount™ plate-reader using the ^33P scintillation protocol.
As a reminder, the pIC50 is −log10 of the IC50, conventionally taken in molar units. As for `c1cncc(-c2cc(NCCc3c[nH]c4ccccc34)nc(-c3ccco3)c2)c1` [Example 1.1, (6′-Furan-2-yl-[3,4′]bipyridinyl-2′-yl)-[2-(1H-indol-3-yl)-ethyl]-amine], the pIC50 is 7.80. With `c1cncc(-c2cc(NCc3cccc4[nH]ccc34)nc(-c3ccco3)c2)c1` [Example 1.2, (6′-Furan-2-yl-[3,4′]bipyridinyl-2′-yl)-(1H-indol-4-ylmethyl)-amine], the pIC50 is 7.72. As to `Cc1ccc(-c2cc(-c3cccnc3)cc(NCCc3c[nH]c4ccccc34)n2)o1` [Example 1.3, [2-(1H-Indol-3-yl)-ethyl]-[6′-(5-methyl-furan-2-yl)-[3,4′]bipyridinyl-2′-yl]-amine], the pIC50 is 7.64. Turning to `c1ccc(-c2cc(-c3cccnc3)cc(NCCc3cccc4[nH]ccc34)n2)nc1` [Example 1.6, [2-(1H-Indol-4-yl)-ethyl]-[2,2′;4′,3″]terpyridin-6′-yl-amine], the pIC50 was 7.54. `c1ccc(-c2cc(-c3cccnc3)cc(NCCc3c[nH]c4ccccc34)n2)nc1` [Example 1.10, [2-(1H-Indol-3-yl)-ethyl]-[2,2′;4′,3″]terpyridin-6′-yl-amine] showed a negative-log IC50 (pIC50) of 7.24. `c1ccc(-c2cc(-c3cccnc3)cc(NCc3cccc4[nH]ccc34)n2)nc1` [Example 1.15, (1H-Indol-4-ylmethyl)-[2,2′;4′,3″]terpyridin-6′-yl-amine] had a pIC50 of 6.72. In the case of `Oc1cccc(CNc2cc(-c3cncc(Br)c3)cc(-c3ccccn3)n2)c1` [Example 1.23, 3-[(5″-Bromo-[2,2′;4′,3″]terpyridin-6′-ylamino)-methyl]-phenol], the pIC50 was 6.67. `CNc1cc(-c2cncc(-c3ccc(C(=O)N4CCN(C)CC4)cc3)c2)cc(-c2ccccn2)n1` [Example 2.1, [4-(6′-Methylamino-[2,2′;4′,3″]terpyridin-5″-yl)-phenyl]-(4-methyl-piperazin-1-yl)-methanone]: the pIC50 was 7.77.

Take `CNc1cc(-c2cncc(-c3ccc(N4CCN(C)CC4)cc3)c2)cc(-c2ccccn2)n1` [Example 2.2, Methyl-{5″-[4-(4-methyl-piperazin-1-yl)-phenyl]-[2,2′;4′,3″]terpyridin-6′-yl}-amine]: the pIC50 was 7.52. Take `CNc1cc(-c2cncc(-c3cccc(N4CCCC4)c3)c2)cc(-c2ccccn2)n1` [Example 2.12, Methyl-[5″-(3-pyrrolidin-1-yl-phenyl)-[2,2′;4′,3″]terpyridin-6′-yl]-amine]: the pIC50 is 6.68. As to `CNc1cc(-c2cncc(-c3ccnc(OC)c3)c2)cc(-c2ccccn2)n1` [Example 2.17, (2′″-Methoxy-[2,2′;4′,3″;5″,4′″]quaterpyridin-6′-yl)-methyl-amine], the negative-log IC50 (pIC50) was 6.63.

Compound `CNc1cc(-c2cncc(-c3cccc(CN4CCN(C)CC4)c3)c2)cc(-c2ccccn2)n1` [Example 2.23, Methyl-{5″-[3-(4-methyl-piperazin-1-ylmethyl)-phenyl]-[2,2′;4′,3″]terpyridin-6′-yl}-amine] showed a pIC50 of 7.80. With `CNc1cc(-c2cncc(-c3ccc(CN4CCN(C(C)C)CC4)cc3)c2)cc(-c2ccccn2)n1` [Example 2.24, {5″-[4-(4-Isopropyl-piperazin-1-ylmethyl)-phenyl]-[2,2′;4′,3″]terpyridin-6′-yl}-methyl-amine] the figure was 7.85; with `CNc1cc(-c2cncc(-c3ccc(CN4CCN(C)CC4)cc3)c2)cc(-c2ccccn2)n1` [Example 2.26, Methyl-{5″-[4-(4-methyl-piperazin-1-ylmethyl)-phenyl]-[2,2′;4′,3″]terpyridin-6′-yl}-amine], 7.92; with `CNc1cc(-c2cncc(-c3ccc(C(=O)N4CCN(C)CC4)cc3)c2)cc(-c2cccc(C)n2)n1` [Example 2.28, [4-(6-Methyl-6′-methylamino-[2,2′;4′,3″]terpyridin-5″-yl)-phenyl]-(4-methyl-piperazin-1-yl)-methanone], 7.28.

For the compound `O=C(c1ccc(-c2cncc(-c3cc(NC4CC4)nc(-c4ccccn4)c3)c2)cc1)N1CCNCC1` [Example 2.30, [4-(6′-Cyclopropylamino-[2,2′;4′,3″]terpyridin-5″-yl)-phenyl]-piperazin-1-yl-methanone], the pIC50 is 8.10. The compound `CC(C)N1CCN(Cc2ccc(-c3cncc(-c4cc(NC5CC5)nc(-c5ccccn5)c4)c3)cc2)CC1` [Example 2.31, Cyclopropyl-{5″-[4-(4-isopropyl-piperazin-1-ylmethyl)-phenyl]-[2,2′;4′,3″]terpyridin-6′-yl}-amine] showed a pIC50 of 8.40. With `CN(C)[C@@H]1CCN(Cc2ccc(-c3cncc(-c4cc(NC5CC5)nc(-c5ccccn5)c4)c3)cc2)C1` [Example 2.62, Cyclopropyl-{5″-[4-((R)-3-dimethylamino-pyrrolidin-1-ylmethyl)-phenyl]-[2,2′;4′,3″]terpyridin-6′-yl}-amine] the figure was 6.63; with `Cc1cccc(-c2cc(-c3cncc(-c4ccc(CO)cc4)c3)cc(NC3CC3)n2)n1` [Example 2.69, [4-(6′-Cyclopropylamino-6-methyl-[2,2′;4′,3″]terpyridin-5″-yl)-phenyl]-methanol], 7.55. With `c1ccc(-c2cc(-c3cncc(-c4ccc(CN5CCNCC5)cc4)c3)cc(NC3CC3)n2)nc1` [Example 2.70, Cyclopropyl-[5″-(4-piperazin-1-ylmethyl-phenyl)-[2,2′;4′,3″]terpyridin-6′-yl]-amine] the figure was 7.05; with `Cc1cccc(-c2cc(-c3cncc(-c4ccc(CN5CCN(C(C)C)CC5)cc4)c3)cc(N)n2)n1` [Example 2.71, 5″-[4-(4-Isopropyl-piperazin-1-ylmethyl)-phenyl]-6-methyl-[2,2′;4′,3″]terpyridin-6′-ylamine], 7.13; with `CC(C)N1CCN(Cc2ccc(-c3cncc(-c4cc(N)nc(-c5ccccn5)c4)c3)cc2)CC1` [Example 2.72, 5″-[4-(4-Isopropyl-piperazin-1-ylmethyl)-phenyl]-[2,2′;4′,3″]terpyridin-6′-ylamine], 7.38.

For the compound `CC(C)N1CCN(Cc2ccc(-c3cncc(-c4cc(-c5ccccn5)nc(C(C)(C)O)c4)c3)cc2)CC1` [Example 2.80, 2-(5″-[4-(4-Isopropyl-piperazin-1-ylmethyl)-phenyl]-[2,2′;4′,3″]terpyridin-6′-yl)-propan-2-ol], the pIC50 was 7.41.

`CC(C)(O)c1cc(-c2cncc(-c3ccc(CN4CCNCC4)cc3)c2)cc(-c2ccccn2)n1` [Example 2.81, 2-[5″-(4-piperazin-1-ylmethyl-phenyl)-[2,2′;4′,3″]terpyridin-6′-yl]-propan-2-ol] had a pIC50 of 7.55. With `CC(C)(O)c1cc(-c2cncc(-c3ccc(CN4CCN(C(C)(C)C)CC4)cc3)c2)cc(-c2ccccn2)n1` [Example 2.82, 2-{5″-[4-(4-tert-Butyl-piperazin-1-ylmethyl)-phenyl]-[2,2′;4′,3″]terpyridin-6′-yl}-propan-2-ol] the figure was 7.44; with `[2H]C([2H])([2H])N1CCN(C(=O)c2ccc(-c3cncc(-c4cc(-c5ccccn5)nc(C(C)(C)O)c4)c3)cc2)CC1` [Example 2.83, {4-[6′-(1-Hydroxy-1-methyl-ethyl)-[2,2′;4′,3″]terpyridin-5″-yl]-phenyl}-(4-methyl-d3-piperazin-1-yl)-methanone], 7.23.
